Laboratory results published in the OligoGym collection.
Where “and” joins values, the source holds several entries; their conditions need not be identical. Equal entries are not always repeated. After the bases stand the sugars from the 5' end (letter, count) and the backbone: PS all phosphorothioate, else s phosphorothioate and o phosphodiester by linkage. Methylation of C is not given here. k = constrained ethyl (cEt); d = 2'-deoxy (DNA)

Target: MALAT1
Conditions: ASO, A431, 0.005 µM

Sequence | target mRNA inhibition
CATGGATTTCAAGGTC (sugars k3 d10 k3, PS) | 11%
GTCACTGGATAAGTAT (sugars k3 d10 k3, PS) | 48%
CCTTCCGCCGCCTCTT (sugars k3 d10 k3, PS) | 3%
AGTGTAAAACATTGCC (sugars k3 d10 k3, PS) | 7%
GCAGTAGGGCTTCTCA (sugars k3 d10 k3, PS) | -8%
ACTTATCCCTAACATG (sugars k3 d10 k3, PS) | 13%
TAACTACCAGCCATTT (sugars k3 d10 k3, PS) | 24%
AAATTTCCTTAGTTGG (sugars k3 d10 k3, PS) | 54%
AGTCACTGGATAAGTA (sugars k3 d10 k3, PS) | 41%
GCAGCGGGATCAGAAC (sugars k3 d10 k3, PS) | 34%
CCTCCTCCGTGTGGTT (sugars k3 d10 k3, PS) | 32%
CTTTCCATTACGCAAC (sugars k3 d10 k3, PS) | 0%
CGCTCCTTCCTGGAAT (sugars k3 d10 k3, PS) | -19%
CTGTGGTTTTAATACC (sugars k3 d10 k3, PS) | 51%
AAACCCCCGGAACTTT (sugars k3 d10 k3, PS) | 5%
TTATAGACCCCTGACT (sugars k3 d10 k3, PS) | 10%
CTTCTATTGGTATTAA (sugars k3 d10 k3, PS) | 18%
TGACACTTTCCTTGCC (sugars k3 d10 k3, PS) | 66% and 46%
CGTCCTGGAAACCAGG (sugars k3 d10 k3, PS) | 21%
GCCTTTTCTAACATAG (sugars k3 d10 k3, PS) | -1%
CCCTTCTATTGGTATT (sugars k3 d10 k3, PS) | 7%
ACTCAAAGTCCAATGC (sugars k3 d10 k3, PS) | 31%
TCTCAACCTCCGTCAT (sugars k3 d10 k3, PS) | 27%

Sequence | target mRNA inhibition
CCTTAGTTGGCATCAA (sugars k3 d10 k3, PS) | 82% and 63%
CTGCGCTTAAGAGGGC (sugars k3 d10 k3, PS) | 34%
ACTACCAGCCATTTCT (sugars k3 d10 k3, PS) | 49%
GAGTATGCTGATAAAC (sugars k3 d10 k3, PS) | 37%
TTCGGCTTCTTTTATT (sugars k3 d10 k3, PS) | 44%
GCCCGCTTTCCCCCTT (sugars k3 d10 k3, PS) | -29%
TTTGAACCCCGTCCTG (sugars k3 d10 k3, PS) | 6%
TTCACCAAATCGCACT (sugars k3 d10 k3, PS) | 29%
GCCTTTAGGATTCTAG (sugars k3 d10 k3, PS) | 30%
TCAACCTCCGTCATGT (sugars k3 d10 k3, PS) | 32%
GCAGTTTCTATAGTAG (sugars k3 d10 k3, PS) | 45%
GACAGTAGGTATAGTT (sugars k3 d10 k3, PS) | -13%
CTTCAACAATCACTAC (sugars k3 d10 k3, PS) | 2%
GAGGGAGTTGAGGCAA (sugars k3 d10 k3, PS) | 24%
CCTGCTACCTTCATCA (sugars k3 d10 k3, PS) | 22%
TTAGTTGGCATCAAGG (sugars k3 d10 k3, PS) | 74% and 70%
CATACCTTAACATCTT (sugars k3 d10 k3, PS) | 32%
ACTGATCTGACTTTGT (sugars k3 d10 k3, PS) | 32%
AGTTATATTAGGTTCT (sugars k3 d10 k3, PS) | 22%
ACCTACAACACCCGGA (sugars k3 d10 k3, PS) | 25%
CCCCAGTTCAATACTT (sugars k3 d10 k3, PS) | 25%
CTTCGGTTTAATCTCT (sugars k3 d10 k3, PS) | 73% and 54%
TGCTTGGGAAATCTTA (sugars k3 d10 k3, PS) | 23%

Sequence | target mRNA inhibition
GGCAAAAAGTAGTTCT (sugars k3 d10 k3, PS) | 31%
GGCCGTTGGCTGCCAG (sugars k3 d10 k3, PS) | 21%
CGTTACCTTGAAACCG (sugars k3 d10 k3, PS) | 36%
TGCTCCCCGCCTGAGC (sugars k3 d10 k3, PS) | 24%
TCTGTTATGTTCACCT (sugars k3 d10 k3, PS) | 52%
GCACATCATGCTATTC (sugars k3 d10 k3, PS) | 45%
CTTGAAGACTGTTGCT (sugars k3 d10 k3, PS) | 42%
TTAAGAGCTGCTATAA (sugars k3 d10 k3, PS) | 6%
CTTCAACTGGGAATAC (sugars k3 d10 k3, PS) | 7%
AGATTTGAGCTGCAAA (sugars k3 d10 k3, PS) | 11%
ATATTTAACTTCCCCC (sugars k3 d10 k3, PS) | 30%
TCCTCTACGCACAACG (sugars k3 d10 k3, PS) | 11%
TCATTAAGCCACTTCC (sugars k3 d10 k3, PS) | 19%
TCCCCCAACTGCTTGC (sugars k3 d10 k3, PS) | 11%
CCCCAATGGAGGTATG (sugars k3 d10 k3, PS) | 37%
AGTTTGCTCACATGCC (sugars k3 d10 k3, PS) | 65% and 53%
TTGTGAGGGAGGCAAA (sugars k3 d10 k3, PS) | 20%
GCCTTTATCACTCAGC (sugars k3 d10 k3, PS) | 29%
ACAACAAGTAAGCCCC (sugars k3 d10 k3, PS) | -7%
ATCTGCGGCCCCCCAG (sugars k3 d10 k3, PS) | -8%
CAAATTGCACTCGCTC (sugars k3 d10 k3, PS) | 34%
ACCAAAGCTGCACTGT (sugars k3 d10 k3, PS) | 15%
AGCTCTATACTTTGAA (sugars k3 d10 k3, PS) | 64%

Sequence | target mRNA inhibition
CGCCATGGAAAGCGAG (sugars k3 d10 k3, PS) | 20%
TTACGCAACTGAGCCC (sugars k3 d10 k3, PS) | 11%
GGAAGATTAAAGTGTG (sugars k3 d10 k3, PS) | 21%
TTACCCCAACTAAACA (sugars k3 d10 k3, PS) | -4%
TGATCTGCGGCCCCCC (sugars k3 d10 k3, PS) | -50%
ATGCTACTCTTCTAAG (sugars k3 d10 k3, PS) | 40%
CCTCAATCCACTTGAT (sugars k3 d10 k3, PS) | -2%
GAAACTCCCCCATTAT (sugars k3 d10 k3, PS) | 6%
ACCAAAGACCTCGACA (sugars k3 d10 k3, PS) | 14%
CCCCACGCCAACACAG (sugars k3 d10 k3, PS) | 10%
GACAAGCAATTAACTT (sugars k3 d10 k3, PS) | 66% and 53%
ATGAGTATAAGCCTGA (sugars k3 d10 k3, PS) | 55%
TTCGAGAAATCGGAGC (sugars k3 d10 k3, PS) | -11%
CCTTTGTGAGGGAGGC (sugars k3 d10 k3, PS) | -5%
GGAGTTACTTGCCAAC (sugars k3 d10 k3, PS) | 24%
TCCTGACAAATTATAC (sugars k3 d10 k3, PS) | 28%
TGGAGATCAGCTTCCG (sugars k3 d10 k3, PS) | 18%
AGTCAAAGCAAAGACG (sugars k3 d10 k3, PS) | 35%
TATGAACCAAAGCTGC (sugars k3 d10 k3, PS) | 7%
GGGAATACTCTTCCAA (sugars k3 d10 k3, PS) | 14%
TAGAGCTTCTCCATTT (sugars k3 d10 k3, PS) | -15%
AACCTACAACACCCGG (sugars k3 d10 k3, PS) | 34%
TGTTAACAGCTGCCTG (sugars k3 d10 k3, PS) | 39%

Sequence | target mRNA inhibition
GAACAAGTCCTACAAT (sugars k3 d10 k3, PS) | 32%
ATTACGCAACTGAGCC (sugars k3 d10 k3, PS) | 16%
TTATTAAGAGCTGCTA (sugars k3 d10 k3, PS) | 27% and 44%
AAGATTTGAGCTGCAA (sugars k3 d10 k3, PS) | -1%
TTCCATTACGCAACTG (sugars k3 d10 k3, PS) | -21%
TAATAGAGCTACTTAG (sugars k3 d10 k3, PS) | -16%
ACTAAAGGCTTCAGTC (sugars k3 d10 k3, PS) | 26%
CCTACTTTAAGCCTTC (sugars k3 d10 k3, PS) | 35%
ACATATTGCCGACCTC (sugars k3 d10 k3, PS) | 43%
CAAGGCACTGATCACT (sugars k3 d10 k3, PS) | 48%
CCTATCTTCTCCAGTC (sugars k3 d10 k3, PS) | -13%
CCCCGTCCTGGAAACC (sugars k3 d10 k3, PS) | 21%
AGCCTATAAGGACAGC (sugars k3 d10 k3, PS) | 23%
CAAGATTGCCCCAACA (sugars k3 d10 k3, PS) | 12%
AGCCTTGCAGGGACGG (sugars k3 d10 k3, PS) | -21%
GGTTAGGTATGAGCTT (sugars k3 d10 k3, PS) | 8%
AAGAACTAGCACCTGC (sugars k3 d10 k3, PS) | 13%
AACCGGAGCAGGAAGA (sugars k3 d10 k3, PS) | -16%
CAACAAGTAAGCCCCA (sugars k3 d10 k3, PS) | 0%
GCCTACTCAAGCTCTT (sugars k3 d10 k3, PS) | 20%
AACCACACACTACCAT (sugars k3 d10 k3, PS) | -7%
CCTTTATCACTCAGCT (sugars k3 d10 k3, PS) | 54%
